Converted amounts (≈) assume the structure as drawn.

A short description of data set [1]: Stability after one hour stirring at RT as a function of glucose or icodextrin concentration in salt solution at pH 3 or pH 7 (Example 1). Type of data set: physicochemical. The note with it: pH of 3 to 3.5. As for the experimental part:
For analysis R and P and their impurities were separated by a C-18 column with a gradient system and UV-detection at 306 nm. Solubility and stability of Resveratrol and […] after one hour stirring at RT, as a function of glucose or icodextrin concentration in a solution, containing 5.4 g/L NaCl, 4.5 g/L NaLactate, 0.275 g/L CaCl2, and 0.051 g/L MgCl2, buffered at pH 3 or pH 7. Solubility was measured after one hour stirring at room temperature, in presence of excess solute, followed by filtering.

Data set [2] is described as follows: Solubility after one hour stirring at RT as a function of glucose or icodextrin concentration in salt solution at pH 3 or pH 7 (Example 1). The format is physicochemical. As to conditions: 0% glucose or icodextrin. The procedure: Concentrations of stilbenoid in the present invention are measured after 1 hour stirring at room temperature, which is preferably 20-23° C., more preferably 22°. So, stilbenoid concentrations correspond to measured solubility after 1 hour stirring at room temperature. Concentration is measured in aqueous solution, comprising the stilbenoid and the at least one saccharide. If not specifically indicated, or if not specifically indicated otherwise, the time of stirring is one hour. In some cases, other stirring times are indicated, such as 12 hours. […] With increasing concentrations of saccharides, less variations were observed. This is highly beneficial for pharmacological formulations. For analysis R and P and their impurities were separated by a C-18 column with a gradient system and UV-detection at 306 nm. Solubility and stability of Resveratrol and […] after one hour stirring at RT, as a function of glucose or icodextrin concentration in a solution, containing 5.4 g/L NaCl, 4.5 g/L NaLactate, 0.275 g/L CaCl2, and 0.051 g/L MgCl2, buffered at pH 3 or pH 7. Solubility was measured after one hour stirring at room temperature, in presence of excess solute, followed by filtering.

A short description of data set [3]: Solubility in commercial peritoneal dialysis solutions (Medium B, E, F), 5 minutes to 12 hours stirring (Example 2). The format is physicochemical. The note with it: for P in Medium B found: Medium B (106.5 g/L anhydrous glucose, pH 3.5); for P in Medium B found / P in Medium E found / P in Medium F found: room temperature; for P in Medium E found: Medium E (75 g/L Icodextrin, pH 3); for P in Medium F found: Medium F (30 g/L anhydrous glucose, pH 3). As for the experimental part: (§1) Solubility studies were carried out commercially available peritoneal dialysis solutions Fresenius Safestay® 1.5% glucose, Baxter Physioneal® 3.86% glucose and Baxter Extraneal® (7.5% icodextrin), precisely in acidic glucose solutions, such as applied in two compartiment peritoneal dialysis applications Stay Safe® and Physioneal®, as well as in Extraneal® Solution that had previously been acidified to pH3. Medium B (117.14 g/L glucose monohydrate (equivalent to 106.5 g/L anhydrous glucose), 0.507 g/L Calcium chloride dihydrate, 0.140 g/L Magnesium chloride hexahydrate, measured pH 3.5), Medium E (75 g/L Icodextrin, 5.35 g/L Sodium Chloride, 4.48 g/L Sodium Lactate, 257 mg/L Calcium Chloride USP, 50.8 mg/L Magnesium Chloride USP, adjusted to pH 3 in our lab), and Medium F (30 g/L anhydrous glucose, 11.279 g/L Sodium chloride, 0.3675 g/L Calcium chloride dihydrate, 0.2033 g/L Magnesium chloride hexahydrate, measured pH 3).
Solubility was measured after 5 minutes to 12 hours stirring at room temperature, in presence of excess solute, followed by filtering.
Solubility was measured after one hour or 12 hours stirring at room temperature, in presence of excess solute, followed by filtering.

The nature of data set [4]: Solubility of resveratrol in water / aqueous solution after stirring at room temperature (general statements). Type of data set: physicochemical. As for the experimental part: Concentrations of stilbenoid in the present invention are measured after 1 hour stirring at room temperature, which is preferably 20-23° C., more preferably 22°. So, stilbenoid concentrations correspond to measured solubility after 1 hour stirring at room temperature. Concentration is measured in aqueous solution, comprising the stilbenoid and the at least one saccharide. If not specifically indicated, or if not specifically indicated otherwise, the time of stirring is one hour. In some cases, other stirring times are indicated, such as 12 hours. […] With increasing concentrations of saccharides, less variations were observed. This is highly beneficial for pharmacological formulations.
(§2) Solubility measurements after 1 hour stirring at RT generated some variability in-between measurement series, which might be due to low temperature variations, back-ground measurements and experimental imprecisions. […] The here calculated factors of increase of solubility are therefore to be considered as conservative.

Data set [5] in a line: Stability of Resveratrol in commercial dialysis solutions during autoclavation (Example 4). Type of data set: physicochemical. The procedure: For analysis R and P and their impurities were separated by a C-18 column with a gradient system and UV-detection at 306 nm.
as §1
Stability of Resveratrol in commercial dialysis solutions during autoclavation. Experiment was carried out in previous defined media B, E and F. 25 mg of resveratrol were sonicated in each medium and 0.45 μm filtered to give clear solutions. Obtained solutions were autoclaved for 30 min at 121° C.

The nature of data set [6]: Solubility after one hour stirring at RT as a function of saccharide concentration in H2O (Examples 5-9). The note with it: 24% N-acetylglucosamin in H2O, 1 hour stirring RT. The format is physicochemical. The procedure:
as §2
Solubility of Resveratrol after one hour stirring at RT, as a function of the concentration of Maltose, Maltotriose, Isomaltotriose, and Maltotetraose in H2O. Solubility was measured after one hour stirring at room temperature, in presence of excess solute, followed by filtering. […] Concentration of Maltose and maltotriose of 7.5% increased solubility of the stilbenoid resveratrol by a factor higher than 6 and 3 respectively.
Solubility of Resveratrol after one hour stirring at RT, as a function of the concentration of Maltodextrin DE 16-19 (DE═dextrose equivalents), Maltodextrin DE 4-7 or Icodextrin in H2O. Solubility was measured after one hour stirring at room temperature, in presence of excess solute, followed by filtering.
Solubility of Resveratrol after one hour stirring at RT, as a function of the concentration of Dextran 2.5-4 kD, Dextran 10 kD, Glycogen 100 kD, and Pullulan 100-200 kD, in H2O. Solubility was measured after one hour stirring at room temperature, in presence of excess solute, followed by filtering. […]

For data set [7] the following is noted: cited from earlier work.

Turning to `OC[C@H]1O[C@@H](Oc2cc(O)cc(/C=C/c3ccc(O)cc3)c2)[C@H](O)[C@@H](O)[C@@H]1O` [Piceid, resveratrol-3-O-β-mono-D-glucoside], in data set [1], the “stabilization by pH” value is “significantly stabilize”. Moreover, the “effect of pH3 versus pH7 on solubility” value in data set [2] is listed as “slightly increases solubility”. Also, in data set [3] (stirring time 60 min), the “P in Medium B found” value came to 485.6 mg/L, the “P in Medium E found” value is listed as 1585.5 mg/L and the “P in Medium F found” value stood at 493.8 mg/L. Also, in data set [3] (stirring time 12 h), the “P in Medium B found” value came out at 342.9 mg/L, the “P in Medium E found” value turned out to be 1370.3 mg/L and the “P in Medium F found” value was 461.4 mg/L. Moreover, in data set [3] (commercial dialysis solutions, between 1 and 12 hours stirring), the “stability of solubilized piceid over stirring time” value is “stable between 1 and 12 hours”.
A word on the solubility: it is the concentration that dissolves in the medium under given conditions. The low end stands for a poorly soluble substance, the high end for a readily soluble substance. As to `Oc1ccc(/C=C/c2cc(O)cc(O)c2)cc1` [Resveratrol, trans-3,5,4′-trihydroxystilbene], the “stabilization by pH” value in data set [1] is given as “significantly stabilize”. The molecule further came in with a solubility at 1 h in data set [4] (22 °C, thermodynamic from solid, after 1 hour stirring, distilled water, variation between measurements) of 1 to 6.5 µg/mL (≈ 4.38 to 28.5 µM). For the same molecule, in data set [4] (12 hours stirring), the “concentration of resveratrol after 12 hours” value was “above 24 mg/L”. In addition, the “effect of pH3 versus pH7 on solubility” value in data set [2] is “slightly increases solubility”. Also, the “stability on heat sterilization” value in data set [5] (pH 3 adjusted Extraneal solution, heat sterilization) is recorded as “without degradation”. For the same molecule, the “stability during standard heat-sterilization” value in data set [5] (saccharide containing dialysis solutions at pH3, specifically in presence of 7.5% Icodextrin) was “remarkably high”. The same molecule registered an increase of concentration in data set [6] of 12 times. In data set [3] (7.5% Icodextrin (Medium E), 12 hours stirring), the “solubility relative to referred absolute solubility (approximately 30 mg/L)” value was “about 4 times”. Also, in data set [7], the “referred absolute solubility of Resveratrol in aqueous solution” value is listed as “approximately 30 mg/L”.

The record behind these values is US11185514B2, “Aqueous solution comprising a polyphenol” (OPTERION Health AG, priority 2015, dated 2021).
